Experimental data as given in patent US20140135327A1, “N- (2 -AMINOPHENYL) BENZAMIDE DERIVATIVES AS HISTONE DEACETYLASE INHIBITORS” (CANCER RESEARCH TECHNOLOGY LIMITED, priority 2011, published 2014).

Experiments:
Format in all cases: biochemical
HDAC 2 = target: T1, HDAC 2 (Homo sapiens, UniProt Q92769); test: Fluorescence-based HDAC isoform assay with electrophoretic separation, HDAC 2; details: isolated 6×His-tagged isoform, 1 μM FAM-labeled acetylated peptide, 17 h at 25° C.
T1 construct: HDACs 1, 2, 3, 6, and 8 were expressed as full length fusion proteins; 6xHis; made in house; host or cells: Sf9 cells (baculovirus)
Description: (§1) The inhibitory effects of the compounds of Examples 7 and 9 above on HDAC activity were determined using a fluorescence-based assay with electrophoretic separation of substrate and product carried out using a microfluidic system followed by quantitation of fluorescence intensity in the substrate and product peaks.
(§2) The assays were performed using isolated HDAC isoforms that had been expressed as 6×His-tagged fusion proteins in a baculovirus expression system in Sf9 cells. HDACs 1, 2, 3, 6, and 8 were expressed as full length fusion proteins. For HDAC-4 and 7 only catalytic domains were expressed (HDAC-4 CAT and HDAC-7 CAT). The HDAC10 fusion protein was expressed as a carboxy-terminal deletion of 38 amino acids (residues 632-669). HDAC3 was coexpressed with a fragment of the SMRT gene (residues 395-489) to generate enzymatically active protein. Purified proteins were incubated with 1 μM carboxyfluorescein (FAM)-labeled acetylated peptide substrate and test compound for 17 h at 25° C. in HDAC assay buffer containing 100 mM HEPES (pH 7.5), 25 mM KCl, 0.1% BSA, and 0.01% Triton X-100. […] Substrate and product were separated electrophoretically using a Caliper LabChip 3000 system with blue laser excitation and green fluorescence detection (CCD2). The fluorescence intensity in the substrate and product peaks was determined using the Well Analyzer software on the Caliper system. […]

HDAC 7-CAT = target: T2, HDAC 7-CAT (Homo sapiens, UniProt Q8WUI4); test: Fluorescence-based HDAC isoform assay with electrophoretic separation, HDAC 7-CAT; details: catalytic domain only, 1 μM FAM-labeled acetylated peptide, 17 h at 25° C.
T2 construct: For HDAC-4 and 7 only catalytic domains were expressed (HDAC-4 CAT and HDAC-7 CAT); 6xHis; made in house; host or cells: Sf9 cells (baculovirus)
T2 sequence (Q8WUI4 512-865 limits assumed): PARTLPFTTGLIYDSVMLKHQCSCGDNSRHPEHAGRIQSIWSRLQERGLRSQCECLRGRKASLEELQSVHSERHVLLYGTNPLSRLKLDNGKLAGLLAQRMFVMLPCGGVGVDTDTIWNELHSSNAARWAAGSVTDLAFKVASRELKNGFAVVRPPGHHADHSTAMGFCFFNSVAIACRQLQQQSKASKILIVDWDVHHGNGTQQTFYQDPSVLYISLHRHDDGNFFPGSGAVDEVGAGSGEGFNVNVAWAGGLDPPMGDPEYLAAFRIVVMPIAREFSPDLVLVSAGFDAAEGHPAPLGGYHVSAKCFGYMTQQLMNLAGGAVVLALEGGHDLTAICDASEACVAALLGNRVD
Description: as §1, §2

HDAC 10 = target: T3, HDAC 10 (Homo sapiens, UniProt Q969S8); test: Fluorescence-based HDAC isoform assay with electrophoretic separation, HDAC 10; details: carboxy-terminal deletion of 38 amino acids, 1 μM FAM-labeled acetylated peptide, 17 h at 25° C.
T3 construct: 6xHis; made in house; host or cells: Sf9 cells (baculovirus)
T3 sequence (Q969S8 1-631): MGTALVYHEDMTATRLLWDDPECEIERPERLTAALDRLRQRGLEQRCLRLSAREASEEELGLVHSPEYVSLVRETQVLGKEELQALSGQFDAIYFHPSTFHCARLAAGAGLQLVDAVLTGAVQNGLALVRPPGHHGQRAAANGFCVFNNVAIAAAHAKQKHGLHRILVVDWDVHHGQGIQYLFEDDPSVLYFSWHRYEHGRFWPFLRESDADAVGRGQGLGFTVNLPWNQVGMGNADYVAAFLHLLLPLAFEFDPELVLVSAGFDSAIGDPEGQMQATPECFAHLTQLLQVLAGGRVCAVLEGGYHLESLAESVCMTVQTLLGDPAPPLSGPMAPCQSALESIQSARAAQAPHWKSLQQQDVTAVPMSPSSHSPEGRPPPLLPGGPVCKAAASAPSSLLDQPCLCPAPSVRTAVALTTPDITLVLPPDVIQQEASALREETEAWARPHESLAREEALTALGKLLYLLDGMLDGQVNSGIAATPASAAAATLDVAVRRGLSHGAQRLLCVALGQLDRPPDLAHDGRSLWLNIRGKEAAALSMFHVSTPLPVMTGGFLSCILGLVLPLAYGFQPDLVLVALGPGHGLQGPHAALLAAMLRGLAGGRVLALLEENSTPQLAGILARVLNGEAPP
Description: as §1, §2

T1 sequence (Q92769 whole entry, species assumed, the tested form may be a part, canonical isoform): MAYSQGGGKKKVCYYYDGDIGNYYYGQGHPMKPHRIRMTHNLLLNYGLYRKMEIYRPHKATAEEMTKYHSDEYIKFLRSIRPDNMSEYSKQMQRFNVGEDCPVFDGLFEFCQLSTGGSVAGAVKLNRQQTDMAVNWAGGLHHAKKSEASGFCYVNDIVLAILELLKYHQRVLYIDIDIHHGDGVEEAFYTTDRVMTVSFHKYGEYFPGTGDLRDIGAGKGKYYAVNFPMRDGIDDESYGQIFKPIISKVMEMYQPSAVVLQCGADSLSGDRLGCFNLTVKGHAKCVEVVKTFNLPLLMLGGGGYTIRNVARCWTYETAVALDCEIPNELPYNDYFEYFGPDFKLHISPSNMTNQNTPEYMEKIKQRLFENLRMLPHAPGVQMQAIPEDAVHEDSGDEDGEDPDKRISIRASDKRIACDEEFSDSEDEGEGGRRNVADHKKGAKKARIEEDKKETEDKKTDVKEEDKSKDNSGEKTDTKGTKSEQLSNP

IC50 (HDAC 2) | IC50 (HDAC 7-CAT) | IC50 (HDAC 10) | SMILES
0.0544 µM | 7.53 µM | 8.04 µM | C=C1CN(Cc2ccc(C(=O)Nc3ccccc3N)cc2)C(=O)c2ccccc21 [Example 7, N-(2-Aminophenyl)-4-[(4-methylene-1-oxo-3,4-dihydroisoquino-2(1H)-yl)methyl]benzamide]
2.11 µM | > 30 µM | > 30 µM | C=C1CN(Cc2ccc(C(=O)Nc3ccccc3N)cc2)C(CC(=O)O)c2ccccc21 (stereo not drawn) [Example 9, [2-(4-{[(2-Aminophenyl)amino]carbonyl}benzyl)-4-methylene-1,2,3,4-tetra hydroisoquinolin-1-yl]acetic acid]
